# Experimental data reported in BindingDB's records for doi:10.1021/cc0501561 (East China Univesity of Science and Technology, 2006).
# Biological target: Peptidyl-prolyl cis-trans isomerase A (Homo sapiens, UniProt P62937)
# Experiment: Surface Plasmon Resonance Assay
# Settings: pH 7.4; 25 °C
# Description: CypA in vitro were determined by employing surface plasmon resonance (SPR) technology.
# Peptidyl-prolyl cis-trans isomerase A, sequence (P62937 whole entry): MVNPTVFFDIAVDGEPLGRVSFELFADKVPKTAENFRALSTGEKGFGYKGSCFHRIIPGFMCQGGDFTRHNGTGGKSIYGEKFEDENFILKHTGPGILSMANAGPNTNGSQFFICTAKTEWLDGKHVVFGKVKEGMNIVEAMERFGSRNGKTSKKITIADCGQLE
SMILES,Kd [µM],IC50 [nM]
"Cc1cc(C)nc(NS(=O)(=O)c2ccc(NC(=O)c3ccc4nc(-c5ccco5)c(-c5ccco5)nc4c3)cc2)n1 [CypA Inhibitor, 4d]",30.8,
"Cc1noc(NS(=O)(=O)c2ccc(NC(=O)c3ccc4nc(-c5ccco5)c(-c5ccco5)nc4c3)cc2)c1C [CypA Inhibitor, 4b]",27.3,
"COC(=O)c1cc(NC(=O)c2ccc3nc(-c4ccco4)c(-c4ccco4)nc3c2)ccc1NCc1ccccc1 [CypA Inhibitor, 4a]",8.19,250
"CCOC(=O)[C@H]1CCCN(C(=O)Nc2cc(-c3cccc(Cl)c3)nc3ccccc23)C1 [CypA Inhibitor, 2b]",28.8,
"O=C(Nc1ccc(S(=O)(=O)Nc2cnc3ccccc3n2)cc1)c1ccc2nc(-c3ccco3)c(-c3ccco3)nc2c1 [CypA Inhibitor, 4g]",35.3,780
"Cc1cc(NS(=O)(=O)c2ccc(NC(=O)c3ccc4nc(-c5ccco5)c(-c5ccco5)nc4c3)cc2)no1 [CypA Inhibitor, 4e]",38.7,2860
"Cc1ccnc(NS(=O)(=O)c2ccc(NC(=O)c3ccc4nc(-c5ccco5)c(-c5ccco5)nc4c3)cc2)n1 [CypA Inhibitor, 4c]",41,6430
"COC(=O)c1cc(C(=O)Nc2ccc(S(=O)(=O)Nc3onc(C)c3C)cc2)ccc1NCc1ccccc1 [CypA Inhibitor, 3b]",10.8,
"O=C(Nc1ccc(S(=O)(=O)Nc2ncccn2)cc1)c1ccc2nc(-c3ccco3)c(-c3ccco3)nc2c1 [CypA Inhibitor, 4f]",22.8,960

# The next lines start with the values.
Kd [µM],IC50 [nM],SMILES
0.0762,,"CC(C)CCOC(=O)Nc1cc(-c2ccc3ccccc3c2)nc2ccccc12 [CypA Inhibitor, 2a]"
3.07,,"CC(C)(C)NC(=O)[C@@H]1Cc2ccccc2CN1Cc1cc(-c2ccc3ccccc3c2)nc2ccccc12 [CypA Inhibitor, 1b]"
17.2,,"CCOC(=O)[C@@H]1CCCN(Cc2cc(-c3ccc4ccccc4c3)nc3ccccc23)C1 [CypA Inhibitor, 1d]"
24.3,,"CC(C)(C)NC(=O)[C@@H]1Cc2ccccc2CN1Cc1cc(-c2cccc(Cl)c2)nc2ccccc12 [CypA Inhibitor, 1a]"
0.212,,"c1ccc2cc(-c3cc(CN4CCCCC4)c4ccccc4n3)ccc2c1 [CypA Inhibitor, 1c]"
3.41,,"CCN(CC)C(=O)CNCc1cc(-c2ccc3ccccc3c2)nc2ccccc12 [CypA Inhibitor, 1e]"
8.18,,"COC(=O)c1cc(C(=O)Nc2cc(-c3cccc(Cl)c3)nc3ccccc23)ccc1NCc1ccccc1 [CypA Inhibitor, 3a]"
